Ends that are not written are not given here.
Columns and labels:
[1] = test system: Staphylococcus aureus (ATCC 6538); test: Microtiter plate antimicrobial assay (relative growth rate, A600); format: cell-based; conditions: synthetic peptide; for MIC50: 10 mg/mL stock in distilled water, 10^6 CFU/mL, overnight culture 37 °C, A600, Figure 5B
Method: (§1) The cell-free supernatant of P. silvilitoris or all E. coli DH5α strains containing cloned AMPs was collected after 24 h of culture and filtered through a 0.2-μm syringe (mixed cellulose esters (MCE), Merck, Darmstadt, Germany), and finally the cell-free supernatant was used for the evaluation of antimicrobial activity. The cell-free supernatant from the E. coli DH5α, harboring only the plasmid vector without the PS_AMP genes, was confirmed as a negative control to have very little effect on antimicrobial activities. The synthesized AMPs were suspended at a concentration of 10 mg/mL in distilled water and then used for antimicrobial activity.
(§2) The antimicrobial activities against S. Typhimurium (KCTC12401), E. coli (ATCC 10536), B. cereus (ATCC 11778), S. iniae (KCTC3657), S. aureus (ATCC 6538) and C. albicans (KCTC7122) were analyzed using the microtiter plate method and expressed as minimal inhibition concentration (MIC); the bacteria pre-cultured overnight (O/N) were mixed with 10^6 CFU/mL with the cell-free supernatant or the synthetic peptides, the reaction mixtures were added to the microtiter plate, and finally the reactivity was observed by the O/N culture at 37 °C. […] The relative activity of the treated samples was then expressed as a ratio of their A600 values to that of the control.Relative growth rate = A/B A: the treated sample A600 value B: non-treated (control) A600 value

[2] = test system: Escherichia coli (ATCC 10536); test: as above; format: cell-based; conditions: synthetic peptide, 10 mg/mL stock in distilled water, 10^6 CFU/mL, overnight culture 37 °C, Figure 5A
Method: as §1, §2

Sequence	MIC50 [1] [µg/mL]	estimated MIC50 ([1]; test strain not printed, AMP4.1 value agrees with the S. aureus value of b25) [µg/mL]	MIC50 [2] [µg/mL]
DKGLEKTKDNFF [PS_AMP4.1]	2200		
GLFDFFKKKDKTTDEQEALDK [PS_AMP4.2]		3000	
LKLKKEQIELLKKIANK [PS_AMP11.1]	2000		1900
